Assays:
Homo sapiens = species: Homo sapiens; assay: Selectivity index, ratio of Ki for sigma 1 receptor (unknown origin) to Ki for sigma 2 receptor (unknown origin)
MCF7 [1] = assay: Cytotoxicity against ER/PR-positive HER2-negative human MCF7 cells harbouring […] assessed as reduction in cell viability at 100 uM incubated for 48 hrs by resazurin dye based assay relative to control; assay type: functional
MCF7 [2] = assay: Cytotoxicity against ER/PR-positive HER2-negative human MCF7 cells harbouring […] assessed as inhibition of cell growth incubated for 48 hrs by resazurin dye based assay; assay type: functional; conditions: MCF7, 48 h
[3] = target: Sigma intracellular receptor 2 (Homo sapiens, UniProt Q5BJF2); assay: Binding affinity to sigma 2 receptor (unknown origin) assessed as inhibition constant by radioligand binding assay
SK-BR-3 [4] = assay: Cytotoxicity against ER/PR-negative HER2-positive human SK-BR-3 cells harbouring […] assessed as reduction in cell viability at 100 to 200 uM incubated for 48 hrs by resazurin dye based assay relative to control; assay type: functional; conditions: dose 100-200 µM
[5] = target: Delta-type opioid receptor (Homo sapiens, UniProt P41143); assay: Binding affinity to DOR (unknown origin) assessed as inhibition constant by radioligand binding assay
Mu-type opioid receptor = Mu-type opioid receptor (Homo sapiens, UniProt P35372); assay: Binding affinity to MOR (unknown origin) assessed as inhibition constant by radioligand binding assay
SK-BR-3 [6] = assay: Cytotoxicity against ER/PR-negative HER2-positive human SK-BR-3 cells harbouring […] assessed as inhibition of cell growth incubated for 48 hrs by resazurin dye based assay; assay type: functional; conditions: SK-BR-3, 48 h
[7] = target: Kappa-type opioid receptor (Homo sapiens, UniProt P41145); assay: Binding affinity to KOR (unknown origin) assessed as inhibition constant by radioligand binding assay
[8] = target: Sigma non-opioid intracellular receptor 1 (Homo sapiens, UniProt Q99720); assay: Binding affinity to sigma 1 receptor (unknown origin) assessed as inhibition constant by radioligand binding assay
Chain of Sigma non-opioid intracellular receptor 1 (Q99720 whole entry): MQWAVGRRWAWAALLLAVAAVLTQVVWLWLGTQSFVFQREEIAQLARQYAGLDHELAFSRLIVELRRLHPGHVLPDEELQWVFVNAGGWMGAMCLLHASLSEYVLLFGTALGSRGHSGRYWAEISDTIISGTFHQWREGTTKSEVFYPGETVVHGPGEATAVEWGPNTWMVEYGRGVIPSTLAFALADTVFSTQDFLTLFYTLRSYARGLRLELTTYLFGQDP

Chain of Mu-type opioid receptor (P35372 whole entry): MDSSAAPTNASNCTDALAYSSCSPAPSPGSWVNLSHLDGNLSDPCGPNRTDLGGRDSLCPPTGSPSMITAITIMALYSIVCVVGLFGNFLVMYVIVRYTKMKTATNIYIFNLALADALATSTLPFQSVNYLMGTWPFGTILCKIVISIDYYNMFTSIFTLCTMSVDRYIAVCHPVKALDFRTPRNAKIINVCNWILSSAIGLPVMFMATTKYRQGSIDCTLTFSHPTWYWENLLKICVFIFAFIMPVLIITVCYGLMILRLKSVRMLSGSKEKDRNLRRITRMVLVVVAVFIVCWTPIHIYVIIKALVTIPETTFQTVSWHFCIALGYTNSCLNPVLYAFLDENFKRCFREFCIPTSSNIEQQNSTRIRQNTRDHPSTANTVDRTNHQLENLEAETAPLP
Chain of Sigma intracellular receptor 2 (Q5BJF2 whole entry): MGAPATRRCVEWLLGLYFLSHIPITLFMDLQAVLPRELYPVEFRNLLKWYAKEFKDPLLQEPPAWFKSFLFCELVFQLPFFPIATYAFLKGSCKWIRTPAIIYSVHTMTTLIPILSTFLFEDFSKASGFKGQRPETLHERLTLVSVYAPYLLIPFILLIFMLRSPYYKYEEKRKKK
Chain of Delta-type opioid receptor (P41143 whole entry): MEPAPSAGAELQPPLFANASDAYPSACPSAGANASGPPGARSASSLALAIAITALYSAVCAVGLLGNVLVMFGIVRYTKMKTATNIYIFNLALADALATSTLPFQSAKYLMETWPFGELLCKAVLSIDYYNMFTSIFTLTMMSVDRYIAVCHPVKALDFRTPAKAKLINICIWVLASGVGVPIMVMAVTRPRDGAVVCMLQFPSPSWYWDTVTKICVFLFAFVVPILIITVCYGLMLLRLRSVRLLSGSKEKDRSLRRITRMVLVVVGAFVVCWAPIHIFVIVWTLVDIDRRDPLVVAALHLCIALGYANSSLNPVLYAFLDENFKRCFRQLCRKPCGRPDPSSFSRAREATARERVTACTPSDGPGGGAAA
Chain of Kappa-type opioid receptor (P41145 whole entry): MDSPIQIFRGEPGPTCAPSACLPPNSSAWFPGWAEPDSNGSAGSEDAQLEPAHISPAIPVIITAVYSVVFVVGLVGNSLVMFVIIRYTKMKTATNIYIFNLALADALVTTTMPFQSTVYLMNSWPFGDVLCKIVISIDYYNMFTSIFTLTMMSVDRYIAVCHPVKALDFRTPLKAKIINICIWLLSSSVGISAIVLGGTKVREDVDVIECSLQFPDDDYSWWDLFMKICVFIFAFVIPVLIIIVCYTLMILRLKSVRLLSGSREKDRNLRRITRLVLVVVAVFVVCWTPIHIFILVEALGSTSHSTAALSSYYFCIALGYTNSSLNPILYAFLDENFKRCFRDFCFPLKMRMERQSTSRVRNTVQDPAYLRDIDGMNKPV

Row | Compound | Ratio Ki (Homo sapiens) | Ki [3] | Ki [5] | Ki (Mu-type opioid receptor) | Ki [7] | Ki [8] | Activity (MCF7 [1]) | IC50 (MCF7 [2]; read-out: IC50) | Activity (SK-BR-3 [4]) | IC50 (SK-BR-3 [6]) | IC50 (MCF7 [2])
1 | CN(CCCNC(=O)c1ccc2ccccc2n1)Cc1ccccc1 | 0.7 | 0.021 µM | > 10 µM | 2.76 µM | 3.58 µM | 0.016 µM | 30% | 1640 µM | 50% | 169 µM | 
2 | COc1ccc(CN(C)CCCNC(=O)c2ccc3ccccc3n2)cc1OC | 35 | 0.016 µM | > 10 µM | 0.056 µM | > 10 µM | 0.573 µM | <=50% | 251 µM | <=60% | 88 µM | 
3 | O=C(CCCN1CCC(O)(c2ccc(Cl)cc2)CC1)c1ccc(F)cc1 [HALOPERIDOL] |  |  |  |  |  |  | 79% |  | 48% | 131 µM | 68 µM
4 | COc1ccc(CN(C)CCCNC(=O)c2ccc3ccccc3c2)cc1OC | 11 | 0.126 µM | > 10 µM | 1.22 µM | > 10 µM | 1.44 µM |  |  |  |  | 
5 | Fc1ccc(-n2cc(CCCCN3CCC4(CC3)OCc3ccccc34)c3ccccc32)cc1 [SIRAMESINE] |  |  |  |  |  |  | 96% | 13 µM | 98% | 14 µM | 

Second part, led by results:

Row | Ratio Ki (Homo sapiens) | Ki [3] | Ki [5] | Ki (Mu-type opioid receptor) | Ki [7] | Ki [8] | Compound | Activity (MCF7 [1]) | IC50 (MCF7 [2]; read-out: IC50) | Activity (SK-BR-3 [4]) | IC50 (SK-BR-3 [6]) | IC50 (MCF7 [2])
6 |  | > 5 µM | > 10 µM | > 10 µM | 4.17 µM | > 10 µM | COc1ccc(CN(C)CCCNC(=O)c2ccco2)cc1OC |  |  |  |  | 
7 | 1 | 0.106 µM | > 10 µM | 3.43 µM | > 10 µM | 0.104 µM | CN(CCCNC(=O)c1ccc2ccccc2c1)Cc1ccccc1 |  |  |  |  | 
8 | 8.1 | 0.046 µM | > 10 µM | 2.9 µM | > 10 µM | 0.375 µM | COc1ccc(CN(C)CCCNC(=O)c2cc3ccccc3o2)cc1OC | <=60% | 36 µM | <=60% | 35 µM | 
9 |  | 1.07 µM | > 10 µM | > 10 µM | > 10 µM | > 10 µM | CN(CCCNC(=O)c1ccco1)Cc1ccccc1 |  |  |  |  | 
10 | 1.2 | 0.0099 µM | > 10 µM | 1.77 µM | 2.39 µM | 0.012 µM | CN(CCCNC(=O)c1cc2ccccc2o1)Cc1ccccc1 | <=50% | 86 µM | 50% | 52 µM | 
